Measurements: patent EP0060776B1, “Medicaments for the treatment of obesity and hyperlipoidemia” (SOMACHIM S.A., priority 1981, dated 1982)

Legend:
[1] = Acute oral toxicity (DL50) in the rat; conditions: in vivo
Source text: La toxicité de l'acide 3,5-diiodo-3'-isopropyt-thyroacétique a également été examinée sur le rat.

[2] = 5-day tolerance study in obese human volunteers; format: in vivo, homme; conditions: 5 obese volunteers, 0,3 mg daily in 3 oral doses, 5 days
Experimental: On a administré à un groupe de 5 volontaires obèses une dose journalière de 0,3 mg d'acide 3,5- dilodo-3'-isopropylthyroacétique en 3 prises orales, durant une première période de 5 jours durant lesquels la tolérance fut vérifiée.

[3] = Weight gain of genetically obese and normal Zucker rats, daily gavage for 4 weeks; format: in vivo, rattes Zucker
Source text: On a notamment étudié les effets de l'acide 3,5-diiodo-3'-isopropyl-thyroacétique sur la prise de poids de la ratte génétiquement obèse, par administration au moyen d'une sonde oesophagienne et en comparaison avec des rattes normales.
(§1) Les animaux employés sont des rattes Zucker âgées de 7 à 8 semaines au début de l'expérimentation. Les animaux ont été placés en cages individuelles et recevaient ad libitum une alimentation équilibrée et vitaminée spéciale pour rats, identique pour tous les lots. La boisson était également présentée ad libitum. Les lots d'animaux ont été établis de telle sorte que le poids-de départ soit sensiblement identique pour les témoins et les traités, chaque lot comporte 6 animaux.
(§2) On a administré une dose journalière de 17,5 µg (30n mol) par 100 g. de poids corporel pendant 4 semaines. Les poids moyens des animaux traités et non traités ont été notés chaque fin de semaine chez les témoins et chez les obèses. Les résultats sont rassemblés dans le tableau ci-dessous.

[4] = 4-week oral treatment of hospitalised obese patients; format: in vivo, homme; conditions: for POIDS Après (J+30): 0,3 mg daily orally, 1 400 cal/j diet
Experimental: Après cet essai d'autres volontaires obèses ont été traités par l'acide 3,5-dilodo-3'-isopropyl- thyroacétique à la dose journalière de 0,3 mg en 2 prises orales durant 4 semaines. La tolérance fut surveillée très attentivement (malades hospitalisés) et fut parfaite.
Le poids des 6 patients obèses hospitalisés sous régime hypocalorique, hypoglucidique, hyperproti- dique à 1 400 cal/j et traités comme il est indiqué ci-dessus a régressé. Le tableau ci-après rassemble les résultats obtenus.

[5] = Weekly food consumption of genetically obese and normal Zucker rats; format: in vivo, rattes Zucker; parameters: Consommation d'aliments: unit not given here; conditions: for Consommation d'aliments: weekly, treated
Source text: as §1, §2
Par ailleurs, la consommation hebdomadaire d'aliments a été notée et les résultats rassemblés dans le tableau ci-dessus.
Enfin le tableau suivant rassemble pour chaque semaine l'observation du rapport : • R = (consommation hebdomadaire (CH))/(gain de poids hebdomadaire (GPH)) [formula]

[6] = Magnusson and Kligman sensitisation test; format: in vivo, cobaye; conditions: guinea pig
Source text: De plus, un test de Manusson et Kligman a été pratiqué chez le cobaye. Ce test prédictif s'est révélé négatif, c'est-à-dire qu'aucun animal n'a montré une quelconque sensibilisation d'ordre allergique au produit.

Patch tests in humans = format: in vivo, homme; conditions: human
[7] = 30-day repeated-dose toxicity in rats at 1/5 of the DL50; format: in vivo
Source text: Par ailleurs, le 1/5 de la dose L 50 a été administré à 20 rats durant 30 jours, 7 jours sur 7. Aucune mort n'a été constatée. […] La formule sanguine est normale.

[8] = Blood cholesterol of the treated Zucker rats; format: in vivo, rattes Zucker
Source text: as §1, §2
La cholestérolémie a été dosée chez les animaux dont les courbes pondérales et de consommation alimentaire ont été rapportées ci-dessus. Les résultats sont les suivants : • Rats normaux non traités 0,9-1 g par litre (2,5 mmol par l.) • Rats normaux traités (4 semaines) 0,9-1 g par litre (2,5 mmol par 1.) • Rats génétiquement obèses non traités • 1,7-1,8 (X = 1,75) g par litre (4,51 mmol par litre) • Rats génétiquement obèses traités (4 semaines) • 1,1 g par litre (2,87 mmol par litre)

[9] = 6 obese patients, 0,3 mg daily, 4 weeks

SMILES: CC(C)c1cc(Oc2c(I)cc(CC(=O)O)cc2I)ccc1O [acide 3,5-diiodo-3'-isopropyl-thyroacétique]
- observation of behaviour and growth [1]: aucun trouble de comportement ni de croissance
- LD50 at 336 h ([1]; po, solution by oesophageal tube, 12 animals): 5.4 mg/kg
- tolérance: tension artérielle, rythme cardiaque, transaminases et phosphatases, glucose, urée sanguine, créatinine urinaire [2]: aucun paramètre n'a subi de modification
- Poids moyens ([3]; genetically obese Zucker rats (Obèses), treated, 17,5 µg per 100 g daily, day 7, initial mean weight 135 g): 148 g
- Poids moyens ([3]; genetically obese Zucker rats (Obèses), treated, 17,5 µg per 100 g daily, day 14, initial mean weight 135 g): 168 g
- Poids moyens ([3]; genetically obese Zucker rats (Obèses), treated, 17,5 µg per 100 g daily, day 21, initial mean weight 135 g): 190 g
- Poids moyens ([3]; genetically obese Zucker rats (Obèses), treated, 17,5 µg per 100 g daily, day 28, initial mean weight 135 g): 206 g
- prise de poids ([3]; genetically obese Zucker rats, 17,5 µg per 100 g body weight): ralentit la prise de poids
- Poids moyens ([3]; normal Zucker rats (Témoins), treated, 17,5 µg per 100 g body weight daily by gavage, day 7, initial mean weight 102 g): 119 g
- Poids moyens ([3]; normal Zucker rats (Témoins), treated, 17,5 µg per 100 g daily, day 14, initial mean weight 102 g): 137 g
- Poids moyens ([3]; normal Zucker rats (Témoins), treated, 17,5 µg per 100 g daily, day 21, initial mean weight 102 g): 152 g
- Poids moyens ([3]; normal Zucker rats (Témoins), treated, 17,5 µg per 100 g daily, day 28, initial mean weight 102 g): 163 g
- croissance ([3]; normal Zucker rats, 17,5 µg per 100 g body weight): ne modifie pas significativement la croissance
- taux de cholestérol sanguin [4, 9]: notablement été abaissé
- transaminases, phosphatases, uricémie, créatinurie [4, 9]: aucune modification
- glycémie ([4]; 6 obese patients, 4 weeks, the patent attributes the effect probably to the diet): a diminué également de manière significative
- poids ([4]; obese humans, statement in words): baisse de poids très substantielle
- POIDS Après (J+30) ([4]; obese patient 1, before (J-0) 115): 107
- POIDS Après (J+30) ([4]; obese patient 2, before (J-0) 108): 101
- POIDS Après (J+30) ([4]; obese patient 3, before (J-0) 97): 89
- POIDS Après (J+30) ([4]; obese patient 4, before (J-0) 103): 93
- POIDS Après (J+30) ([4]; obese patient 5, before (J-0) 85): 81
- POIDS Après (J+30) ([4]; obese patient 6, before (J-0) 111): 104
- tolérance ([4]; obese volunteers, hospitalised, 0,3 mg daily in 2 oral doses, 4 weeks): parfaite
- consommation alimentaire ([5]; normal animals): ne modifie pas la consommation alimentaire
- consommation alimentaire ([5]; obese animals): réduit celle des animaux obèses
- effet anorexigène ([5]; rat, concluded from the ratio weekly consumption / weekly weight gain): aucun effet anorexigène
- Consommation d'aliments ([5]; normal Zucker rats (Témoins), day 7, initial mean consumption 78): 83
- Consommation d'aliments ([5]; normal Zucker rats (Témoins), day 14, initial mean consumption 78): 112
- Consommation d'aliments ([5]; normal Zucker rats (Témoins), day 21, initial mean consumption 78): 120
- Consommation d'aliments ([5]; normal Zucker rats (Témoins), day 28, initial mean consumption 78): 118
- Consommation d'aliments ([5]; obese Zucker rats (Obèses), day 7, initial mean consumption 118): 124
- Consommation d'aliments ([5]; obese Zucker rats (Obèses), day 14, initial mean consumption 118): 131
- Consommation d'aliments ([5]; obese Zucker rats (Obèses), day 21, initial mean consumption 118): 148
- Consommation d'aliments ([5]; obese Zucker rats (Obèses), day 28, initial mean consumption 118): 142
- sensibilisation d'ordre allergique [6]: négatif
- patchtests (Patch tests in humans): n'était pas allergogène
- mortality ([7]; 20 rats, 1/5 of the DL50 daily for 30 days): Aucune mort
- autopsy, macroscopic state of the organs ([7]; rat, in vivo): aucun organe n'était macroscopiquement modifié à l'exception d'une légère pâleur des thyroïdes
- composantes biochimiques principales, glycémie, uricémie, urémie ([7]; rat, in vivo): évoluent dans les limites habituelles à l'espèce
- formule sanguine ([7]; rat, in vivo): normale
- histologie du foie, rate, rein, thyroïde, surénales ([7]; rat, in vivo): n'a rien révélé d'anormal
- taux de cholestérol ([8]; animals with normal cholesterol level): n'a pas d'effet
- cholestérolémie ([8]; genetically obese rats treated 4 weeks, untreated obese rats 1,7-1,8): 1,1 g par litre
- cholestérolémie ([8]; genetically obese rats treated 4 weeks, untreated obese rats 4,51): 2,87 mmol par litre
- taux de cholestérol ([8]; hypercholesterolemic animals): baisser sensiblement
- cholestérolémie ([8]; normal rats treated 4 weeks, untreated normal rats 0,9-1): 0,9-1 g par litre
- cholestérolémie ([8]; normal rats treated 4 weeks, untreated normal rats 2,5): 2,5 mmol par 1.
